In ChEMBL document CHEMBL1201862, “PubChem BioAssay data set” (2004):
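All cell lines were grown in 96-well plates and treated with compound for 48 hours. Abbreviation: GI50, concentration required for 50% inhibition of growth.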 The source made the active and inactive calls. No stated cut-off is given here; in the data, active = GI50 up to about 1.1 µM and inactive = higher.

Columns and labels:
Experiment in all cases: inhibition of tumour cell growth, NCI panel, 48 h
[1] = tested on: 786-0
[2] = tested on: A498
[3] = tested on: ACHN
[4] = tested on: CAKI-1
[5] = tested on: CCRF-CEM
[6] = tested on: DU-145
[7] = tested on: HCT-116
[8] = tested on: KM12
[9] = tested on: M14
[10] = tested on: MOLT-4
[11] = tested on: Malme-3M
[12] = tested on: NCI-H460
[13] = tested on: OVCAR-8
[14] = tested on: PC-3
[15] = tested on: SF-268
[16] = tested on: SK-MEL-28
[17] = tested on: SNB-19
[18] = tested on: SNB-75
[19] = tested on: SW-620
[20] = tested on: UO-31

| SMILES | GI50 [1] | GI50 [2] | GI50 [3] | GI50 [4] | GI50 [5] | GI50 [6] | GI50 [7] | GI50 [8] | GI50 [9] | GI50 [10] | GI50 [11] | GI50 [12] | GI50 [13] | GI50 [14] | GI50 [15] | GI50 [16] | GI50 [17] | GI50 [18] | GI50 [19] | GI50 [20] |
| --- | --- | --- | --- | --- | --- | --- | --- | --- | --- | --- | --- | --- | --- | --- | --- | --- | --- | --- | --- | --- |
| Cc1c(Cl)c(C)c(Cl)c(O)c1Cl | 43.3 µM (inactive) | 19 µM (inactive) | 22.8 µM (inactive) | 21.4 µM (inactive) | 33.7 µM (inactive) | 37 µM (inactive) | 18.2 µM (inactive) | 26.3 µM (inactive) | 20.5 µM (inactive) | 17.1 µM (inactive) | 15.2 µM (inactive) | 24.7 µM (inactive) | 30.3 µM (inactive) | 19.8 µM (inactive) | 26.7 µM (inactive) | 38.4 µM (inactive) | 30.5 µM (inactive) | 23.9 µM (inactive) | 34.3 µM (inactive) | 17.4 µM (inactive) |
| N#CN1C2CCC1CC(=O)C2 | > 100 µM (inactive) | > 100 µM (inactive) | > 100 µM (inactive) | > 100 µM (inactive) | > 100 µM (inactive) | > 100 µM (inactive) | > 100 µM (inactive) | > 100 µM (inactive) | > 100 µM (inactive) | > 100 µM (inactive) | > 100 µM (inactive) | > 100 µM (inactive) | > 100 µM (inactive) | > 100 µM (inactive) | > 100 µM (inactive) | > 100 µM (inactive) | > 100 µM (inactive) | > 100 µM (inactive) | > 100 µM (inactive) | > 100 µM (inactive) |
| O=C(C[n+]1ccccc1)N/N=C(\Cc1nc2ccc([N+](=O)[O-])cc2nc1O)C(=O)Nc1cc(Cl)c(Cl)cc1Cl | > 100 µM (inactive) | > 100 µM (inactive) | > 100 µM (inactive) | 65.6 µM (inactive) | > 100 µM (inactive) | > 100 µM (inactive) | > 100 µM (inactive) | 60.3 µM (inactive) | > 100 µM (inactive) | > 100 µM (inactive) | > 100 µM (inactive) | 87.9 µM (inactive) | > 100 µM (inactive) | > 100 µM (inactive) | > 100 µM (inactive) | > 100 µM (inactive) | > 100 µM (inactive) | 19.4 µM (inactive) | > 100 µM (inactive) | 50.4 µM (inactive) |
| CCOC(=O)c1ccc(/N=C/C=C(\Nc2ccc(C(=O)OCC)cc2)c2ccc3ccccc3c2)cc1 | 23.3 µM (inactive) | 95.9 µM (inactive) | 30.5 µM (inactive) | 25 µM (inactive) | 17.9 µM (inactive) | 37.3 µM (inactive) | 31.4 µM (inactive) | 17.2 µM (inactive) | 23.7 µM (inactive) | 3.97 µM (inactive) | 20.5 µM (inactive) | 25.8 µM (inactive) | 35.4 µM (inactive) | 31.3 µM (inactive) | 42.1 µM (inactive) | 23.5 µM (inactive) | 36.2 µM (inactive) | 28 µM (inactive) | 45.2 µM (inactive) | 40.8 µM (inactive) |
| Cc1cccc(/C=N/NC(=S)NC(C)(C)C)n1 | 76.9 µM (inactive) | > 100 µM (inactive) | 35.6 µM (inactive) | > 100 µM (inactive) | 1.64 µM (inactive) | 66.8 µM (inactive) | 19.7 µM (inactive) | > 100 µM (inactive) | 88.7 µM (inactive) | 4.72 µM (inactive) | > 100 µM (inactive) | 85.1 µM (inactive) | 50.8 µM (inactive) | 23.7 µM (inactive) | 41 µM (inactive) | > 100 µM (inactive) | > 100 µM (inactive) | > 100 µM (inactive) | 16 µM (inactive) | 62.4 µM (inactive) |
| NCCN1CC2CCC(CC2)C1 | > 10 µM (inactive) | > 10 µM (inactive) | > 10 µM (inactive) | > 10 µM (inactive) | > 10 µM (inactive) | > 10 µM (inactive) | > 10 µM (inactive) | > 10 µM (inactive) | > 10 µM (inactive) | > 10 µM (inactive) | > 10 µM (inactive) | > 10 µM (inactive) | > 10 µM (inactive) | > 10 µM (inactive) | > 10 µM (inactive) | > 10 µM (inactive) | > 10 µM (inactive) | > 10 µM (inactive) | > 10 µM (inactive) | > 10 µM (inactive) |
| CN(C)CCC(=O)N1C/C(=C\c2ccc(Cl)c(Cl)c2)C(=O)/C(=C/c2ccc(Cl)c(Cl)c2)C1 | 0.125 µM (active) | 1.32 µM (inactive) | 0.329 µM (active) | 0.394 µM (active) | 0.0269 µM (active) | 0.224 µM (active) | 0.119 µM (active) | 0.279 µM (active) | 0.291 µM (active) | 0.19 µM (active) | 0.64 µM (active) | 0.479 µM (active) | 0.265 µM (active) | 0.102 µM (active) | 0.309 µM (active) | 0.618 µM (active) | 0.287 µM (active) | 0.415 µM (active) | 0.102 µM (active) | 0.336 µM (active) |
| Oc1nc(S)nc(SCc2c(Cl)c(Cl)c(Cl)c(Cl)c2Cl)n1 | 42.7 µM (inactive) | > 59.4 µM (inactive) | 77.1 µM (inactive) | 30.6 µM (inactive) | 15.8 µM (inactive) | 45.9 µM (inactive) | 39.8 µM (inactive) | 89.9 µM (inactive) | 60.8 µM (inactive) | 0.809 µM (active) | 27.5 µM (inactive) | 58.2 µM (inactive) | 62.7 µM (inactive) | > 67.9 µM (inactive) | 40 µM (inactive) | 31.1 µM (inactive) | > 100 µM (inactive) | > 100 µM (inactive) | 32.4 µM (inactive) | 30 µM (inactive) |
| Cc1cc(C)nc(NS(=O)(=O)c2ccc(Nc3c4ccccc4nc4ccc(C(=O)Nc5ccc(S(=O)(=O)N=C(N)N)cc5)cc34)cc2)n1 | 23.3 µM (inactive) | > 100 µM (inactive) | > 100 µM (inactive) | > 100 µM (inactive) | 31 µM (inactive) | > 100 µM (inactive) | 70.1 µM (inactive) | > 100 µM (inactive) | > 100 µM (inactive) | 32.3 µM (inactive) | 30.7 µM (inactive) | 36 µM (inactive) | > 100 µM (inactive) | > 100 µM (inactive) | 69.5 µM (inactive) | > 100 µM (inactive) | > 100 µM (inactive) | > 100 µM (inactive) | 48.4 µM (inactive) | 82.4 µM (inactive) |
| N/C(=N\n1c(=S)[nH]c2ccccc2c1=O)Nn1c(=S)[nH]c2ccccc2c1=O | 15.3 µM (inactive) | > 100 µM (inactive) | 46.7 µM (inactive) | 13.2 µM (inactive) | 18.8 µM (inactive) | > 100 µM (inactive) | 16.8 µM (inactive) | 96.8 µM (inactive) | 11.4 µM (inactive) | 11.4 µM (inactive) | 20.5 µM (inactive) | 44.1 µM (inactive) | 28.8 µM (inactive) | 51.8 µM (inactive) | 21.1 µM (inactive) | 28.2 µM (inactive) | 88.3 µM (inactive) | 25.1 µM (inactive) | 18.9 µM (inactive) | 14.3 µM (inactive) |
| O=C(N[C@H](CO)[C@H](O)c1ccc([N+](=O)[O-])cc1)C(Cl)Cl [CHLORAMPHENICOL] | > 100 µM (inactive) | > 100 µM (inactive) | > 100 µM (inactive) | > 100 µM (inactive) | > 100 µM (inactive) | > 100 µM (inactive) | > 100 µM (inactive) | > 100 µM (inactive) | > 100 µM (inactive) | > 100 µM (inactive) | > 100 µM (inactive) | > 100 µM (inactive) | > 100 µM (inactive) | > 100 µM (inactive) | > 100 µM (inactive) | > 100 µM (inactive) | > 100 µM (inactive) | 98.2 µM (inactive) | > 100 µM (inactive) | > 100 µM (inactive) |
| CC(=O)Nc1ccccc1C=C1c2ccccc2-c2ccccc21 | 19.9 µM (inactive) | 36.3 µM (inactive) | 42.7 µM (inactive) | 63 µM (inactive) | 48 µM (inactive) | 33.2 µM (inactive) | 29.7 µM (inactive) | > 100 µM (inactive) | 36.7 µM (inactive) | 77.1 µM (inactive) | > 100 µM (inactive) | 34.7 µM (inactive) | 21.7 µM (inactive) | 41.8 µM (inactive) | > 100 µM (inactive) | > 100 µM (inactive) | 17.8 µM (inactive) | 17.9 µM (inactive) | > 100 µM (inactive) | 16.2 µM (inactive) |
| CCCOc1ccc(-c2nc(-c3ccc(/N=C/c4ccc(N(CCOS(C)(=O)=O)CCOS(C)(=O)=O)cc4C)cc3)cs2)cc1 | 3.35 µM (inactive) | 7.5 µM (inactive) | 1.46 µM (inactive) | 1.3 µM (inactive) | 2.58 µM (inactive) | 3.16 µM (inactive) | 29.4 µM (inactive) | 13.6 µM (inactive) | 16.8 µM (inactive) | 5.35 µM (inactive) | 44.4 µM (inactive) | 0.286 µM (active) | 25.5 µM (inactive) | 18.5 µM (inactive) | 11.5 µM (inactive) | 67.9 µM (inactive) | 41.7 µM (inactive) | 2.78 µM (inactive) | 25.7 µM (inactive) | 11.7 µM (inactive) |
| O=c1c2c3c(sc2nc2n1N=CN(c1ccccc1)C2)CCCC3 | > 100 µM (inactive) | > 100 µM (inactive) | > 100 µM (inactive) | > 100 µM (inactive) | > 100 µM (inactive) | > 100 µM (inactive) | > 100 µM (inactive) | > 100 µM (inactive) | > 100 µM (inactive) | > 100 µM (inactive) | > 100 µM (inactive) | > 100 µM (inactive) | > 100 µM (inactive) | > 100 µM (inactive) | > 100 µM (inactive) | > 100 µM (inactive) | > 100 µM (inactive) | > 100 µM (inactive) | > 100 µM (inactive) | > 100 µM (inactive) |
